In US20260317312A1, “ISOXAZOLIDINES AS RIPK1 INHIBITORS AND USE THEREOF” (GENZYME CORPORATION, priority 2023, published 2026):

Key:
[1] = molecular target: T1, hRIPK1 (aa 1-375) fusion protein (Homo sapiens, UniProt Q13546); experiment: Receptor-Interacting Protein Kinase 1 inhibition, ADP Glo assay (conversion of ATP to ADP due to autophosphorylation); assay type: biochemical; details: ATP 50 μM, 30 min preincubation, 240 min incubation, room temperature, DMSO 1%
T1 construct: hRIPK1 (aa 1-375) fusion protein
T1 sequence (Q13546 1-375): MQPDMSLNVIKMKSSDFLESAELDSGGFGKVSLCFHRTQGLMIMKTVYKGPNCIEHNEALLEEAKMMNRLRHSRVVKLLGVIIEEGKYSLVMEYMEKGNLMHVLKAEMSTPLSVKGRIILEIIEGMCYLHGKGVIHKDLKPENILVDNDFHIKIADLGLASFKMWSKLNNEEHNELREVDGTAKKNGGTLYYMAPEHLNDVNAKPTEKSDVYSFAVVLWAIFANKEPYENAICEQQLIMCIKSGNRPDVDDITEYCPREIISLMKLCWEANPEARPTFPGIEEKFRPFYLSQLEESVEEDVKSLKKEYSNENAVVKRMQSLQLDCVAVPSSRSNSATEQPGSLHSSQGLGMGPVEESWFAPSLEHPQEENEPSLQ
Method: The catalytic activity of RIPK1 was measured by monitoring the conversion of Adenosine triphosphate (ATP) to Adenosine diphosphate (ADP) due to autophosphorylation using an ADP-Glo kinase kit (Promega, catalog no. V9104).
In detail, 2 μl recombinantly produced hRIPK1 (aa 1-375) fusion protein (end concentration 3.6 μg/ml) and 2 μl compound (end concentration 33300-1.69 nM; DMSO end concentration 1%) were incubated for 30 minutes at room temperature and then 2 μl ATP (ADP Glo kit, end concentration 50 μM) were added. After another 240 minutes incubation at room temperature, 5 μl Promega ADP-Glo reagent I was added to quench the reaction and deplete unconsumed ATP. After an incubation period of 30 minutes, 10 μl Promega ADP-Glo detection reagent II was added resulting in conversion of ADP to ATP, which generates a light-reaction between luciferase and luciferin. Luminescence was quantified after 30 minutes with a Pherastar FS (BMG LABTECH, Ortenberg).
The adjustment was obtained by nonlinear regression using the Levenberg Marquardt algorithm.

U937 cells = experiment: Cellular assay in U937 cells to measure activity of RIPK1-inhibitors on cell death (necroptosis); assay type: cell-based; details: Homo sapiens, U-937, TNFα/zVAD.fmk induced cell death (necroptosis), overnight (18 to 24 hrs), 37° C., MTS readout
Excerpt: Upon TNF-Receptor I ligation, Ser/Thr kinase RIPK1 is recruited to a transient receptor complex I. Upon modification of RIPK1 which promotes activation of RIPK1, complex lib can form, that involves recruitment of RIPK3 and MLKL (mixed lineage-kinase domain-like protein) which then translocates from the cytosol to the plasma membrane to execute cell death (Cai, Z. et al, Nat. Cell Biol. (2014)16:55-65).
Cell death was quantified in 96 well plates by determination of the amount of live cell using a CellTiter 96 Aqueous reagent (Promega), a calorimetric method to measure the number of live cells by reducing tetrazolium compound [3-(4,5-dimethylthiazol-2-yl)-5-(3-carboxymethoxyphenyl)-2-(4-sulfophenyl)-2H-tetrazolium, inner salt; MTS] into formazan. Absorbance of formazan was read at 490 nm. The inhibitory activity of the test compound was quantified in a concentration response curve (CRC) experiment.
Compounds were obtained as 10 mM stock solutions and were diluted 1 to 10 volumes with DMSO to yield a 1 mM solution. From this solution 2 μl were diluted with 998 μl growth medium. 100 μl of 2 μM compound solution was further diluted sequentially with a dilution factor of 2.5 by adding 150 μl growth medium. A total of 10 concentrations were tested ranging from 10 μM to 0.26 nM or from 1 μM to 0.07 nM.
U937 cells were cultured in RPM11640 Glutamax and 10% heat inactivated FBS. 50 μl cell suspension containing 1×10^6 cells/ml supplemented with 50 μM zVAD.fmk (Benzyloxycarbonyl-Val-Ala-Asp (Ome) fluoromethylketone) and 100 ng/ml recombinant human TNFα were dispensed in each well of a 96-well plate. 50 μl of compound dilutions (described in Cellular assay in U937 cells) were added and the cell suspension incubated overnight (18 to 24 hrs) at 37° C., 5% CO2 in a humidified atmosphere (95% rH). High (no compound) and low control (no TNFα, zVAD.fmk) were tested with 7 replicates; all compound concentrations were tested in duplicates on each experimental plate.
CellTiter 96 Aqueous reagent was mixed (100 μl PMS (phenazine methosulfate) solution/2 ml MTS (3-(4,5-[…])-5-(3-carboxymethoxyphenyl)-2-(4-sulfophenyl)-2H-tetrazolium, inner salt) solution) and 20 μl were added per well. After 4 hrs incubation at 37° C. (5% CO2 95% rH) optical density was measured at 490 nm on a microplate reader (Tecan Infinite M1000).
The % inhibition is expressed as percentage of the maximal inhibition value obtained in the absence of TNFα/zVAD.fmc.

| IC50 [1] [nM] | Compound | IC50 (U937 cells) [nM] |
| --- | --- | --- |
| 62 | C[C@]1(C(=O)N2OCC[C@H]2c2cc(F)cc(F)c2)C[C@@H](Nc2c(Cl)ncnc2C(N)=O)C1 [Compound 10, cis-6-chloro-5-((3-((S)-3-(3,5-difluorophenyl)isoxazolidine-2-carbonyl)-3-methylcyclobutyl)amino)pyrimidine-4-carboxamide] | 364 |
| 62 | C[C@]1(C(=O)N2OCC[C@H]2c2cc(F)cc(F)c2)C[C@@H](Nc2ncnc(C(N)=O)c2F)C1 [Compound 11, cis-6-((3-((S)-3-(3,5-difluorophenyl)isoxazolidine-2-carbonyl)-3-methylcyclobutyl)amino)-5-fluoropyrimidine-4-carboxamide] | 440 |
| 35 | NC(=O)c1ccnc(N[C@H]2CC[C@@H](C(=O)N3OCC[C@H]3c3ccc(Cl)cc3)CC2)n1 [Compound 12, cis-2-((4-((S)-3-(4-chlorophenyl)isoxazolidine-2-carbonyl)cyclohexyl)amino)pyrimidine-4-carboxamide] | 560 |
| 114 | NC(=O)c1cc(N[C@H]2CC[C@@H](C(=O)N3OCC[C@H]3c3ccc(Cl)cc3)CC2)ncn1 [Compound 13, cis-6-((4-((S)-3-(4-chlorophenyl)isoxazolidine-2-carbonyl)cyclohexyl)amino)pyrimidine-4-carboxamide] | 462 |
| 33 | N#Cc1ccnc(NC[C@H]2CC[C@H](C(=O)N3OCC[C@H]3c3ccc(Cl)cc3)CC2)n1 [Compound 14, trans-2-(((4-((S)-3-(4-chlorophenyl)isoxazolidine-2-carbonyl)cyclohexyl)methyl)amino)pyrimidine-4-carbonitrile] | 503 |
| 9 | N#Cc1cc(NC[C@H]2CC[C@H](C(=O)N3OCC[C@H]3c3ccc(Cl)cc3)CC2)ncn1 [Compound 15, trans-6-(((4-((S)-3-(4-chlorophenyl)isoxazolidine-2-carbonyl)cyclohexyl)methyl)amino)pyrimidine-4-carbonitrile] | 192 |
| 24 | N#Cc1ccnc(N[C@H]2C[C@@H](C(=O)N3OCC[C@H]3c3cccc(F)c3)C2)n1 [Compound 16, cis-2-((3-((S)-3-(3-fluorophenyl)isoxazolidine-2-carbonyl)cyclobutyl)amino)pyrimidine-4-carbonitrile] | 123 |
| 56 | N#Cc1cc(N[C@H]2C[C@@H](C(=O)N3OCC[C@H]3c3cccc(F)c3)C2)ncn1 [Compound 17, cis-6-((3-((S)-3-(3-fluorophenyl)isoxazolidine-2-carbonyl)cyclobutyl)amino)pyrimidine-4-carbonitrile] | 194 |
| 41 | N#Cc1cc(N[C@H]2C[C@@H](C(=O)N3OCC[C@H]3c3cc(F)cc(F)c3)C2)ncn1 [Compound 18, cis-6-((3-((S)-3-(3,5-difluorophenyl)isoxazolidine-2-carbonyl)cyclobutyl)amino)pyrimidine-4-carbonitrile] | 162 |
| 66 | N#Cc1cc(F)cc([C@@H]2CCON2C(=O)[C@H]2C[C@@H](Nc3nccc(C#N)n3)C2)c1 [Compound 19, cis-2-((3-((S)-3-(3-cyano-5-fluorophenyl)isoxazolidine-2-carbonyl)cyclobutyl)amino)pyrimidine-4-carbonitrile] | 757 |
| 69 | N#Cc1cc(F)cc([C@@H]2CCON2C(=O)[C@H]2C[C@@H](Nc3cc(C#N)ncn3)C2)c1 [Compound 20, cis-6-((3-((S)-3-(3-cyano-5-fluorophenyl)isoxazolidine-2-carbonyl)cyclobutyl)amino)pyrimidine-4-carbonitrile] | 809 |
| 29 | N#Cc1ccnc(N[C@H]2C[C@@H](C(=O)N3OCC[C@H]3c3ccc(F)c(F)c3)C2)n1 [Compound 21, cis-2-((3-((S)-3-(3,4-difluorophenyl)isoxazolidine-2-carbonyl)cyclobutyl)amino)pyrimidine-4-carbonitrile] | 212 |
